# Source: US20250073209A1, “COVALENT TARGETING OF RhoA FOR CANCER THERAPY” (The University of Hong Kong, priority 2023, published 2025)
# How the values were obtained:
# RhoA WT = target: T1, RhoA WT (Homo sapiens, UniProt P61586); assay: RhoA-GTP rhotekin pull-down in HT29 cells expressing RhoA WT; type: cell-based; settings: 24 h
# T1 construct: endogenous in cells; host or cells: HT29
# Procedure: RhoA Pull-Down Activation Assay Biochem Kit (#BK036) was purchased from Cytoskeleton. According to the manufacturer's protocol, total cell lysate (0.5 mg/mL; 300 μL) was added to 7.5 μL of Rhotekin-Rho Binding Domain beads in 0.6 mL tubes. The solution mixture was incubated at 4° C. on an end-to-end rotator for 1 hour. Beads were washed with 500 μL of washing buffer once, then centrifuged at 5000g for 3 min and the supernatant was discarded. RhoA-GTP was then eluted in 2× laemmli buffer and resolved in 10% SDS-PAGE.
# The effects of CL16 in HT29 cells expressing RhoA WT protein and HT29 cells with RhoA C16 Å knock-in by CRISPR-Cas9 were investigated, respectively, to validate the molecular mechanism of RhoA inhibition and anti-cancer properties from CL16. […] HT29 cells expressing RhoA WT or C16 Å protein were incubated with solvent vehicle, CL16 or Rhosin in complete medium for 24 h. The cells were then washed, lysed, subjected to rhotekin pull-down and immunoblotted. […] Wound healing assay on HT29 cells expressing RhoA WT or C16 Å protein were incubated with solvent vehicle, CL16 or Rhosin in complete medium for 48 h (FIGS. 19A and 19B).
# HCT116 cells = assay: Apoptosis assay with Caspase-3/7 Green Detection Reagent; type: cell-based, human; settings: HCT116, 24 h
# Procedure: HCT116 cells were seeded onto a poly-D-lysine coated Ibidi 8-well chamber slide (20,000 cells) and cultured overnight in complete medium at 37° C. with 5% CO2. The cells were treated with DMSO control, Rhosin or CL16 at the indicated concentration along with 5 μM of CellEvent™ Caspase- 3/7 green in serum-free medium for 24 h. Prior to imaging, the medium was exchanged for Hanks' Balanced Salt Solution (HBSS). Confocal fluorescence microscopy was performed using a Zeiss laser scanning microscope 880 with a 20× water-immersion objective lens and ZEN 2.3 (Black Version) software (Carl Zeiss). CellEvent™ Caspase- 3/7 green was excited by a 488 nm diode laser and emission was collected on a META detector between 490 and 525 nm. Image analysis was performed on ImageJ where the number of cells expressing fluorescence within the field was counted against the total number of cells to report the percentage of apoptotic cells. The average percentage was calculated from 3 separate images from the same well.
# The effects of CL16 treatment on cell cycle checkpoint proteins were investigated with immunoblotting of the cell cycle checkpoint proteins in SW620 and HT29 cells after CL16 treatment for 24 h. […] Caspase- 3/7 Green Detection Reagent was used to study apoptosis in HCT116 cells treated with Rhosin by confocal fluorescence imaging. […]
# [1] = system: phosphorylated MLC (downstream effector of RhoA); assay: Western blotting of phosphorylated MLC, serum starvation-restimulation; type: cell-based, human; settings: HCT116, serum starvation-restimulation
# Procedure: Anti-RhoA (#2117), anti-GAPDH (#2118), anti-phosphoMLC (#3671), anti-MLC (#3672), anti-FLAG (#8146), anti-GFP (#2956), and anti-GST (#2624) were purchased from Cell Signaling Technology. Cells were washed with PBS and then harvested using cell lysis buffer (1% Triton X100, 10 mM beta glycerol phosphate, 10 mM sodium pyrophosphate, 40 mM HEPES, 4 mM EDTA, pH7.4) with 4% protease/phosphatase inhibitor cocktail (Pierce). Protein samples were quantified using BCA assays (Pierce), normalized and then boiled with 4× Laemmli sampling buffer in 95° C. for 5 mins. Samples were resolved in 10% polyacrylamide gel (Biorad) and then transferred onto PVDF membrane (Biorad) and blocked with blocking buffer (5% bovine serum albumin (BSA) in Tris-buffered saline with 0.1% Tween 20 (TBST)) for 1 h. Membrane was washed in TBST, followed by incubation with corresponding primary antibodies (diluted 1:1000 in 5% BSA/milk in TBST with 1% NaN3) overnight at 4° C. After washing thrice with TBST, the membrane was incubated with HRP-conjugated secondary antibodies (#7074 or 7076) for one hour at room temperature. The membrane was then incubated with LumiGlo reagent (Cell Signaling Technology) and chemiluminescence was captured using a Chemidoc (Biorad).
# The effects of CL16 on RhoA downstream signals in CRCs with serum starvation-restimulation were examined.
# SL4 cells = assay: MTT assay on mouse CRC cells SL4; type: cell-based; settings: complete medium 48 h
# Procedure: FIG. 13A is a graph showing the cell viability, which was examined by MTT assay. SL4 cells were treated with solvent vehicle or CL16 in complete medium for 48 h.
# Antitumor effects of CL16 in an immunocompetent, orthotopic mouse CRC model, which was established by the inoculation of mouse CRC cells, SL4, intracecally were examined (FIG. 20). […] Immunohistochemistry staining of CD3, CD4, CD8, Ki67 was conducted, with cleaved caspase-3 and VEGFR2 on tumor tissues from the vehicle- or CL16-treated mice.
# RhoA = assay: FRET-RhoA biosensor imaging, serum re-stimulation; type: cell-based, human; settings: transfected cells, serum-free 24 h, 10% FBS 10 min
# Procedure: To further validate the inhibitory effects of CL16 on RhoA, HCT116 and HT29 cells were transfected with a FRET-RhoA biosensor, where cells with elevated RhoA activity would show a higher FRET/mTFP1. Specifically, HCT116 cells transfected with FRET-RhoA biosensor were treated with CL16 or solvent in serum-free medium for 24 h, washed with PBS, re-stimulated with 10% FBS for 10 min, washed, and then imaged in HBSS by confocal fluorescence microscopy. […] In addition, HCT116 cells were serum-starved and treated with CL16 or Rhosin for 24 h, followed by 10% FBS re-stimulation for 10 min. The cells were then washed and fixed by 4% paraformaldehyde, washed with PBS and stained with Alexa Fluor 488-Phalloidin in PBS (1:20, v/v) at room temperature for 15 min. The cells were washed with PBS, incubated with Hoechst (8.2 μM) in PBS for 15 min, washed and then imaged in PBS by confocal fluorescence microscopy. […] Since RhoA regulates cytoskeletal dynamics and RhoA activation can induce the formation of contractile F-actin, the reduction of F-actin fibers by CL16 treatment supports its inhibitory roles on RhoA signaling.
# T1 sequence (P61586 whole entry): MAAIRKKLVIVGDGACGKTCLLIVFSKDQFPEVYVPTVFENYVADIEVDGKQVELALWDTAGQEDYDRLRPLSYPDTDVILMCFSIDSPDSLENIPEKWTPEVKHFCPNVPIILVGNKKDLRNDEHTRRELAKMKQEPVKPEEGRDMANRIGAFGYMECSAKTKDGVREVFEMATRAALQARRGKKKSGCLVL
structure (smiles),measurement,setting,value
O=C(CCl)N1N=C(c2cc3ccccc3o2)CC1c1ccco1 (centres unmarked) [CL16],active RhoA-GTP level,RhoA WT,significant decrease in the active RhoA-GTP level
same,cell apoptosis,HCT116 cells,mediated cell apoptosis
same,phosphorylation of MLC upon serum re-stimulation,[1],significantly eliminated the increases in phosphorylation of MLC
same,viability of SL4,SL4 cells,significantly decreased the viability
same,FRET/mTFP1 upon serum re-stimulation,RhoA,abolishment of the increase in FRET/mTFP1
